# Measured values from patent publication US10441663B2, “Methods for treating cancer” (Bicycle Therapeutics Limited, priority 2016, dated 2019).
# *1 amine or outer side, *2 acyl side, *3 side chain or, on linkers, in order; H or OH if unused. Where a SMILES comes first, the peptide text is derived from it. Bridges are numbered along the chain shown (N, C = ends). [ ]: non-standard residue; d: D form. The star is where a group is joined. X1 = COc1cc2cc(c1Cl)N(C)C(=O)C[C@H](OC(=O)[C@H](C)N(C)C(=O)CCSSC(C)CCC(=O)*)[C@]1(C)O[C@H]1[C@H](C)[C@@H]1C[C@@](O)(NC(=O)O1)[C@H](OC)/C=C/C=C(\C)C2; 1Nal = N[C@@H](Cc1cccc2ccccc12)C(=O)O; TBMB = c1c(C[*:1])cc(C[*:3])cc1C[*:2]; Tle = CC(C)(C)[C@H](N)C(=O)O; βAla = NCCC(=O)O; Sar = CNCC(=O)O
# Columns and labels:
# MT1-MMP = MT1-MMP (Homo sapiens, UniProt P50281); assay: Fluorescence polarisation competition binding
# Method: By means of comparison, a non-reducible BDC was prepared, BT1721, which includes a non-reducible maleimide thioether linkage which is […].
# LU-01-0486 PDX model = assay type: in vivo, Mus Musculus; details: 3 or 10 mg/kg
# Method: The objective of this study was to evaluate the in vivo anti-tumor efficacy of BT1718 in the treatment of MT1-MMP low-expressing LU-01-0486 PDX model in female Balb/C nude mice
# Each mouse was inoculated subcutaneously at the right flank with LU-01-0486 of tumor fragment (30 mm^3) for tumor development. The treatments was started when the average tumor volume reaches 164 mm^3.
# (§1) All the procedures related to animal handling, care and the treatment in the study were performed following the guidance of the Association for Assessment and Accreditation of Laboratory Animal Care (AAALAC). At the time of routine monitoring, the animals were daily checked for any effects of tumor growth and treatments on normal behavior such as mobility, food and water consumption (by looking only), body weight gain/loss (body weights were measured twice weekly), eye/hair matting and any other abnormal effect as stated in the protocol. Death and observed clinical signs were recorded on the basis of the numbers of animals within each subset.
# The major endpoint was to see if the tumor growth could be delayed or mice could be cured. Tumor size was measured two times weekly in two dimensions using a caliper, and the volume was expressed in mm^3 using the formula: V=0.5 a×b^2 where a and b are the long and short diameters of the tumor, respectively. The tumor size was then used for calculations of T/C value. […]
# TGI was calculated for each group using the formula: TGI (%)=[1−(Ti−T0)/(Vi−V0)]×100; Ti is the average tumor volume of a treatment group on a given day, T0 is the average tumor volume of the treatment group on the day of treatment start, Vi is the average tumor volume of the vehicle control group on the same day with Ti, and V0 is the average tumor volume of the vehicle group on the day of treatment start. […]
# A one-way ANOVA was performed to compare tumor volume among groups, and when a significant F-statistics (a ratio of treatment variance to the error variance) was obtained, comparisons between groups were carried out with Games-Howell test. All data were analyzed using Prism. […]
# NCI-H1975 xenograft = assay: In vivo efficacy of BT1718 in NCI-H1975 xenograft; set-up: species or system Mus Musculus; key to Best response at 10 mg/kg: CR complete response; PR partial response
# Method: The objective of this study was to evaluate the in vivo anti-tumor efficacy of BT1718in treatment of HT1080, NCI-H292, NCI-H1975, MDA-MB-231, HCC1806, RPMI2650, HCT-15, HT-29 and SNU-16 xenograft in BALB/c nude mice.
# The HT1080, NCI-H292, NCI-H1975, MDA-MB-231, HCC1806, RPMI2650, HCT-15, HT-29 and SNU-16 tumor cells were maintained in vitro as a monolayer culture in medium supplemented with 10% heat inactivated fetal bovine serum at 37° C. in an […]. The tumor cells will be routinely subcultured twice weekly by trypsin-EDTA treatment. The cells growing in an exponential growth phase will be harvested and counted for tumor inoculation.
# Mouse was inoculated subcutaneously at the right flank with tumor cells for tumor development. The animals were randomized and treatment was started when the average tumor reaches certain volume for the efficacy study, the inoculating cell amounts and starting tumor size were shown as below in Table 9. The test article administration and the animal numbers in each group were shown in the experimental design in Table 10.
# as §1, with “according to” for “following”, “guidelines” for “guidance”, “every day),” for “twice weekly),”
# The major endpoint was to see if the tumor growth could be delayed or mice could be cured. Tumor size was measured three times weekly in two dimensions using a caliper, and the volume was expressed in mm^3 using the formula: V=0.5 a×b^2 where a and b are the long and short diameters of the tumor, respectively. The tumor size was then used for calculations of T/C value. The T/C value (in percent) is an indication of antitumor effectiveness; T and C are the mean volumes of the treated and control groups, respectively, on a given day.
# TGI was calculated for each group using the formula: TGI (%)=[1−(Ti−T0)/(Vi−V0)]×100; Ti is the average tumor volume of a treatment group on a given day, T0 is the average tumor volume of the treatment group on the day of treatment start, Vi is the average tumor volume of the vehicle control group on the same day with Ti, and V0 is the average tumor volume of the vehicle group on the day of treatment start.
# Summary statistics, including mean and the standard error of the mean (SEM), are provided for the tumor volume of each group at each time point.
# Statistical analysis of difference in tumor volume among the groups was conducted on the data obtained at the best therapeutic time point after the final dose.
# A one-way ANOVA was performed to compare tumor volume among groups, and when a significant F-statistics (a ratio of treatment variance to the error variance) was obtained, comparisons between groups were carried out with Games-Howell test. All data were analyzed using Prism. P<0.05 was considered to be statistically significant.
structure (smiles),measurement,setting,value
COc1cc2cc(c1Cl)N(C)C(=O)C[C@H](OC(=O)[C@H](C)N(C)C(=O)CCSSC(C)CCC(=O)NCCC(=O)N(C)CC(=O)N(C)CC(=O)N(C)CC(=O)N(C)CC(=O)N(C)CC(=O)N(C)CC(=O)N(C)CC(=O)N(C)CC(=O)N(C)CC(=O)N(C)CC(=O)N[C@@H](C)C(=O)N[C@H]1CSCc3cc4cc(c3)CSC[C@H](NC(=O)[C@@H](C)NC(=O)[C@H](Cc3cccc5ccccc35)NC(=O)[C@H](CCC(=O)O)NC(=O)[C@H](CC(N)=O)NC(=O)[C@@H](C)NC1=O)C(=O)N[C@@H](CCC(=O)O)C(=O)N[C@@H](CC(=O)O)C(=O)N[C@@H](Cc1ccccc1)C(=O)N[C@@H](Cc1ccc(O)cc1)C(=O)N[C@@H](CC(=O)O)C(=O)N[C@@H](C(C)(C)C)C(=O)N[C@H](C(N)=O)CSC4)[C@]1(C)O[C@H]1[C@H](C)[C@@H]1C[C@@](O)(NC(=O)O1)[C@H](OC)/C=C/C=C(\C)C2 (stereo partly shown) [BT1718] ({X1-βAla}-[Sar][Sar][Sar][Sar][Sar][Sar][Sar][Sar][Sar][Sar]AC[dA]NE[1Nal][dA]CEDFYD[Tle]C-NH2; linker 12-18-25 via TBMB (inferred)),Ki,MT1-MMP,0.9 nM
same,body weight effect,LU-01-0486 PDX model,no significant effect on body weight
same,tumor growth,LU-01-0486 PDX model,limited inhibition of tumor growth
same,Body Weight,"NCI-H1975 xenograft; 1 mpk biw, day 0",23.9 ± 0.7 g
same,Tumor Volume,"NCI-H1975 xenograft; 1 mpk biw, day 0",170 ± 9 mm^3
same,Body Weight,"NCI-H1975 xenograft; 1 mpk biw, day 2",23.5 ± 0.7 g
same,Tumor Volume,"NCI-H1975 xenograft; 1 mpk biw, day 2",224 ± 33 mm^3
same,Body Weight,"NCI-H1975 xenograft; 1 mpk biw, day 4",24.0 ± 0.9 g
same,Tumor Volume,"NCI-H1975 xenograft; 1 mpk biw, day 4",352 ± 69 mm^3
same,Body Weight,"NCI-H1975 xenograft; 1 mpk biw, day 7",24.4 ± 0.7 g
same,Tumor Volume,"NCI-H1975 xenograft; 1 mpk biw, day 7",587 ± 134 mm^3
same,Body Weight,"NCI-H1975 xenograft; 1 mpk biw, day 9",24.6 ± 0.8 g
same,Tumor Volume,"NCI-H1975 xenograft; 1 mpk biw, day 9",840 ± 155 mm^3
same,Body Weight,"NCI-H1975 xenograft; 1 mpk biw, day 11",25.2 ± 1.1 g
same,Tumor Volume,"NCI-H1975 xenograft; 1 mpk biw, day 11",1265 ± 144 mm^3
same,Body Weight,"NCI-H1975 xenograft; 1 mpk biw, day 14",26.0 ± 1.0 g
same,Tumor Volume,"NCI-H1975 xenograft; 1 mpk biw, day 14",1455 ± 130 mm^3
same,Body Weight,"NCI-H1975 xenograft; 3 mpk biw, day 0",23.6 ± 0.4 g
same,Tumor Volume,"NCI-H1975 xenograft; 3 mpk biw, day 0",166 ± 13 mm^3
same,Body Weight,"NCI-H1975 xenograft; 3 mpk biw, day 2",23.6 ± 0.5 g
same,Tumor Volume,"NCI-H1975 xenograft; 3 mpk biw, day 2",241 ± 20 mm^3
same,Body Weight,"NCI-H1975 xenograft; 3 mpk biw, day 4",24.0 ± 0.8 g
same,Tumor Volume,"NCI-H1975 xenograft; 3 mpk biw, day 4",377 ± 38 mm^3
same,Body Weight,"NCI-H1975 xenograft; 3 mpk biw, day 7",24.8 ± 0.8 g
same,Tumor Volume,"NCI-H1975 xenograft; 3 mpk biw, day 7",605 ± 84 mm^3
same,Body Weight,"NCI-H1975 xenograft; 3 mpk biw, day 9",24.4 ± 0.9 g
same,Tumor Volume,"NCI-H1975 xenograft; 3 mpk biw, day 9",732 ± 95 mm^3
same,Body Weight,"NCI-H1975 xenograft; 3 mpk biw, day 11",25.1 ± 0.8 g
same,Tumor Volume,"NCI-H1975 xenograft; 3 mpk biw, day 11",1095 ± 207 mm^3
same,Body Weight,"NCI-H1975 xenograft; 3 mpk biw, day 14",25.0 ± 0.7 g
same,Tumor Volume,"NCI-H1975 xenograft; 3 mpk biw, day 14",1343 ± 349 mm^3
same,Body Weight,"NCI-H1975 xenograft; 10 mpk biw, day 0",23.3 ± 1.4 g
same,Tumor Volume,"NCI-H1975 xenograft; 10 mpk biw, day 0",168 ± 6 mm^3
same,Body Weight,"NCI-H1975 xenograft; 10 mpk biw, day 2",22.5 ± 1.7 g
same,Tumor Volume,"NCI-H1975 xenograft; 10 mpk biw, day 2",209 ± 31 mm^3
same,Body Weight,"NCI-H1975 xenograft; 10 mpk biw, day 4",22.4 ± 1.7 g
same,Tumor Volume,"NCI-H1975 xenograft; 10 mpk biw, day 4",269 ± 23 mm^3
same,Body Weight,"NCI-H1975 xenograft; 10 mpk biw, day 7",22.6 ± 1.9 g
same,Tumor Volume,"NCI-H1975 xenograft; 10 mpk biw, day 7",419 ± 22 mm^3
same,Body Weight,"NCI-H1975 xenograft; 10 mpk biw, day 9",22.4 ± 1.8 g
same,Tumor Volume,"NCI-H1975 xenograft; 10 mpk biw, day 9",442 ± 23 mm^3
same,Body Weight,"NCI-H1975 xenograft; 10 mpk biw, day 11",22.3 ± 1.9 g
same,Tumor Volume,"NCI-H1975 xenograft; 10 mpk biw, day 11",442 ± 26 mm^3
same,Body Weight,"NCI-H1975 xenograft; 10 mpk biw, day 14",22.7 ± 2.0 g
same,Tumor Volume,"NCI-H1975 xenograft; 10 mpk biw, day 14",421 ± 31 mm^3
same,Best response at 10 mg/kg,"NCI-H1975 xenograft; NCI-H1975, 10 mg/kg",CR
same,TGI,"NCI-H1975 xenograft; NCI-H1975, 1 mpk, biw, day 14",3.0%
same,Tumor Volume,"NCI-H1975 xenograft; NCI-H1975, 1 mpk, biw, day 14",1455 ± 130 mm^3
same,TGI,"NCI-H1975 xenograft; NCI-H1975, 3 mpk, biw, day 14",11.2%
same,Tumor Volume,"NCI-H1975 xenograft; NCI-H1975, 3 mpk, biw, day 14",1343 ± 349 mm^3
same,TGI,"NCI-H1975 xenograft; NCI-H1975, 10 mpk, biw, day 14",80.9%
same,Tumor Volume,"NCI-H1975 xenograft; NCI-H1975, 10 mpk, biw, day 14",421 ± 31 mm^3
same,Minimally Effective Dose IV BIW,"NCI-H1975 xenograft; NCI-H1975, dose leading to tumor-stasis",<10 mg/kg
same,tumor volume after regression,NCI-H1975 xenograft; after 4 weeks 10 mg/kg biw,below 50 mm3
same,body weight effect,NCI-H1975 xenograft; at PG-D40,marked body weight lost
